In patent US20240025862A1, “SUBSTITUTED N-PHENYLURACILS AND SALTS THEREOF, AND USE THEREOF AS HERBICIDAL ACTIVE SUBSTANCES” (Bayer Aktiengesellschaft, priority 2020, published 2024):
Blank lines part the entries; values can stand above or below the molecule they belong to.

Tests used:
Assay type in all cases: in vivo
[1] = tested on: Abutilon theophrasti (ABUTH); assay: Post-emergence herbicidal action, greenhouse pot test; conditions: rated visually after about 3 weeks vs untreated controls, 100% = plants have died
How it was run: (§1)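 Activity was scored by eye about 3 weeks after treatment against untreated plants, where 100% means dead plants and 0% means no difference. Plants at the one-leaf stage received a foliar spray of WP or EC formulations in water plus 0.5% additive (600 l/ha, up to 20 g/ha). Plants were grown in sandy loam pots in a greenhouse for 2–3 weeks before spraying.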

[2] = tested on: Amaranthus retroflexus (AMARE); assay: as above; conditions: rated visually after about 3 weeks vs untreated controls, 100% = plants have died
How it was run: as §1

Lolium rigidum (LOLRI) = assay: as above; conditions: dosage 20 g/ha
How it was run: as §1

[3] = tested on: Pharbitis purpurea (PHBPU); assay: as above
How it was run: as §1

[4] = tested on: Polygonum convolvulus (POLCO); assay: as above
How it was run: as §1

Veronica persica (VERPE) = assay: as above
How it was run: as §1

Viola tricolor (VIOTR) = assay: as above
How it was run: as §1

[5] = tested on: Alopecurus myosuroides (ALOMY); assay: Post-emergence herbicidal action, greenhouse pot test (also comparative test C); conditions: rated visually after about 3 weeks vs untreated controls, 100% = plants have died
How it was run: (§2)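 Green parts of one-leaf-stage plants are sprayed at 600 l/ha with formulated compound plus 0.5% additive, then kept under optimum greenhouse conditions for about 3 weeks. Damage is scored visually, where 100% means dead plants and 0% means no difference from controls.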

[6] = tested on: Echinochloa crus-galli (ECHCG); assay: as above
How it was run: as §2

[7] = tested on: Matricaria inodora (MATIN); assay: as above
How it was run: as §2

Setaria viridis (SETVI) = assay: as above
How it was run: as §2

Glycine max (GLXMA) = assay: Post-emergence crop plant compatibility, greenhouse pot test; conditions: 1.25 g/ha
How it was run: (§3)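 Greenhouse pot test; post-emergence foliar spray at one-leaf stage, WP or EC in water + 0.5% additive, 600 l/ha. Visual rating after ~3 wk, % relative to untreated (0–100%).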

[8] = tested on: Triticum aestivum (TRZAS); assay: as above; conditions: vs untreated controls
How it was run: as §3

Zea mays (ZEAMX) = assay: as above; conditions: 1.25 g/ha, vs untreated controls
How it was run: as §3

Oryza sativa (ORYSA) = assay: Post-emergence crop plant compatibility, greenhouse pot test (also comparative test C); conditions: for Post-emergence action against ORYSA (crop plant compatibility): vs untreated controls
How it was run: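 Visual damage versus untreated plants (0% = like control, 100% = plants died) was scored about 3 weeks after a post-emergence spray in greenhouse pots. Treatment: one-leaf stage, WP or EC in water at 600 l/ha with 0.5% additive; a/b/c mark different dosages on the same crop.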

Avena fatua (AVEFA) = assay: Post-emergence herbicidal action, greenhouse pot test; conditions: Avena fatua, 504 h, 20 g/ha, rated visually after about 3 weeks vs untreated controls, 100% = plants have died, read-out: Post-emergence action at 20 g/ha against AVEFA in %
How it was run: as §1

Post-emergence action against GLXMA in % (Glycine max (GLXMA)): 20% | Post-emergence action against TRZAS (crop plant compatibility) ([8]; 1.25 g/ha): 20% | Post-emergence action against TRZAS (crop plant compatibility) ([8]; 5 g/ha): 20% | Post-emergence action against ZEAMX (crop plant compatibility) (Zea mays (ZEAMX)): 20% | Post-emergence action against ORYSA (crop plant compatibility) (Oryza sativa (ORYSA); 1.25 g/ha): 0% | Post-emergence action against ORYSA (crop plant compatibility) (Oryza sativa (ORYSA); 5 g/ha): 0% | Post-emergence action against ORYSA in % (Oryza sativa (ORYSA); 20 g/ha, crop plant compatibility): 20%
SMILES: CCOCCOC(=O)COc1ccccc1Oc1cc(-n2c(=O)cc(C(F)(F)F)n(C)c2=O)c(F)cc1[N+](=O)[O-] [I.6-2]
Post-emergence action at 1.25 g/ha against ABUTH in % ([1]; 1.25 g/ha): 100% | Post-emergence action at 5 g/ha against ABUTH in % ([1]; 5 g/ha): 100% | Post-emergence action at 20 g/ha against ABUTH in % ([1]; 20 g/ha): 100% | Post-emergence action at 1.25 g/ha against AMARE in % ([2]; 1.25 g/ha): 100% | Post-emergence action at 5 g/ha against AMARE in % ([2]; 5 g/ha): 100% | Post-emergence action at 20 g/ha against AMARE in % ([2]; 20 g/ha): 100% | Post-emergence action against LOLRI in % (Lolium rigidum (LOLRI)): 90% | Post-emergence action against PHBPU in % ([3]; dosage 1.25 g/ha): 100% | Post-emergence action against PHBPU in % ([3]; dosage 5 g/ha): 100% | Post-emergence action against PHBPU in % ([3]; dosage 20 g/ha): 100% | Post-emergence action against POLCO in % ([4]; dosage 5 g/ha): 100% | Post-emergence action against POLCO in % ([4]; dosage 20 g/ha): 100% | Post-emergence action against VERPE (Veronica persica (VERPE); 1.25 g/ha): 100% | Post-emergence action against VERPE (Veronica persica (VERPE); 5 g/ha): 100% | Post-emergence action against VERPE (Veronica persica (VERPE); 20 g/ha): 100% | Post-emergence action against VIOTR (Viola tricolor (VIOTR); 1.25 g/ha): 100% | Post-emergence action against VIOTR (Viola tricolor (VIOTR); 5 g/ha): 100% | Post-emergence action against VIOTR (Viola tricolor (VIOTR); 20 g/ha): 100% | Post-emergence action at 20 g/ha against ALOMY in % ([5]; 20 g/ha): 90% | Post-emergence action against ECHCG in % ([6]; dosage 5 g/ha): 90% | Post-emergence action against ECHCG in % ([6]; dosage 20 g/ha): 100% | Post-emergence action against MATIN in % ([7]; dosage 5 g/ha): 90% | Post-emergence action against MATIN in % ([7]; dosage 20 g/ha): 100% | Post-emergence action against SETVI (Setaria viridis (SETVI); 20 g/ha): 100% | Post-emergence action against SETVI in % (Setaria viridis (SETVI); dosage 1.25 g/ha): 100% | Post-emergence action against SETVI in % (Setaria viridis (SETVI); dosage 5 g/ha): 100%

Post-emergence action against GLXMA in % (Glycine max (GLXMA)): 0% | Post-emergence action against TRZAS (crop plant compatibility) ([8]; 1.25 g/ha): 0% | Post-emergence action against ORYSA (crop plant compatibility) (Oryza sativa (ORYSA); 1.25 g/ha): 0%
SMILES: CC(C#N)OC(=O)COc1ccccc1Oc1cc(-n2c(=O)cc(C(F)(F)F)n(C)c2=O)c(F)cc1Cl (centres unmarked) [I.7-177, 1-Cyanoethyl (2-{2-chloro-4-fluoro-5-[3-methyl-2,6-dioxo-4-(trifluoromethyl)-3,6-dihydropyrimidin-1(2H)-yl]phenoxy}phenoxy)acetate]
pest or weed control at 1.25 g/ha ([1]; Abutilon theophrasti, 504 h, 1.25 g/ha, read-out: Post-emergence action at 1.25 g/ha against ABUTH in %): 100% | pest or weed control at 5 g/ha ([1]; Abutilon theophrasti, 504 h, 5 g/ha, read-out: Post-emergence action at 5 g/ha against ABUTH in %): 100% | pest or weed control at 20 g/ha ([1]; Abutilon theophrasti, 504 h, 20 g/ha, read-out: Post-emergence action at 20 g/ha against ABUTH in %): 100% | pest or weed control at 1.25 g/ha ([2]; Amaranthus retroflexus, 504 h, 1.25 g/ha, read-out: Post-emergence action at 1.25 g/ha against AMARE in %): 100% | pest or weed control at 5 g/ha ([2]; Amaranthus retroflexus, 504 h, 5 g/ha, read-out: Post-emergence action at 5 g/ha against AMARE in %): 100% | pest or weed control at 20 g/ha ([2]; Amaranthus retroflexus, 504 h, 20 g/ha, read-out: Post-emergence action at 20 g/ha against AMARE in %): 100% | pest or weed control at 20 g/ha (Avena fatua (AVEFA)): 80% | pest or weed control at 20 g/ha (Lolium rigidum (LOLRI); Lolium rigidum, 504 h, read-out: Post-emergence action against LOLRI in %): 80% | pest or weed control at 1.25 g/ha ([3]; Ipomoea purpurea, 504 h, dosage 1.25 g/ha, read-out: Post-emergence action against PHBPU in %): 90% | pest or weed control at 5 g/ha ([3]; Ipomoea purpurea, 504 h, dosage 5 g/ha, read-out: Post-emergence action against PHBPU in %): 100% | pest or weed control at 20 g/ha ([3]; Ipomoea purpurea, 504 h, dosage 20 g/ha, read-out: Post-emergence action against PHBPU in %): 100% | pest or weed control at 5 g/ha ([4]; Fallopia convolvulus, 504 h, dosage 5 g/ha, read-out: Post-emergence action against POLCO in %): 80% | pest or weed control at 20 g/ha ([4]; Fallopia convolvulus, 504 h, dosage 20 g/ha, read-out: Post-emergence action against POLCO in %): 100% | pest or weed control at 1.25 g/ha (Veronica persica (VERPE); Veronica persica, 504 h, 1.25 g/ha, read-out: Post-emergence action against VERPE): 90% | pest or weed control at 5 g/ha (Veronica persica (VERPE); Veronica persica, 504 h, 5 g/ha, read-out: Post-emergence action against VERPE): 100% | pest or weed control at 20 g/ha (Veronica persica (VERPE); Veronica persica, 504 h, 20 g/ha, read-out: Post-emergence action against VERPE): 100% | pest or weed control at 1.25 g/ha (Viola tricolor (VIOTR); Viola tricolor, 504 h, 1.25 g/ha, read-out: Post-emergence action against VIOTR): 100% | pest or weed control at 5 g/ha (Viola tricolor (VIOTR); Viola tricolor, 504 h, 5 g/ha, read-out: Post-emergence action against VIOTR): 100% | pest or weed control at 20 g/ha (Viola tricolor (VIOTR); Viola tricolor, 504 h, 20 g/ha, read-out: Post-emergence action against VIOTR): 100% | pest or weed control at 5 g/ha ([5]; Alopecurus myosuroides, 504 h, 5 g/ha, read-out: Post-emergence action at 5 g/ha against ALOMY in %): 90% | pest or weed control at 20 g/ha ([5]; Alopecurus myosuroides, 504 h, 20 g/ha, read-out: Post-emergence action at 20 g/ha against ALOMY in %): 100% | pest or weed control at 5 g/ha ([6]; Echinochloa crus-galli, 504 h, dosage 5 g/ha, read-out: Post-emergence action against ECHCG in %): 100% | pest or weed control at 20 g/ha ([6]; Echinochloa crus-galli, 504 h, dosage 20 g/ha, read-out: Post-emergence action against ECHCG in %): 100% | pest or weed control at 1.25 g/ha ([7]; Tripleurospermum inodorum, 504 h, dosage 1.25 g/ha, read-out: Post-emergence action against MATIN in %): 80% | pest or weed control at 5 g/ha ([7]; Tripleurospermum inodorum, 504 h, dosage 5 g/ha, read-out: Post-emergence action against MATIN in %): 80% | pest or weed control at 20 g/ha ([7]; Tripleurospermum inodorum, 504 h, dosage 20 g/ha, read-out: Post-emergence action against MATIN in %): 80% | pest or weed control at 20 g/ha (Setaria viridis (SETVI); Setaria viridis, 504 h, 20 g/ha, read-out: Post-emergence action against SETVI): 100% | pest or weed control at 1.25 g/ha (Setaria viridis (SETVI); Setaria viridis, 504 h, dosage 1.25 g/ha, read-out: Post-emergence action against SETVI in %): 100% | pest or weed control at 5 g/ha (Setaria viridis (SETVI); Setaria viridis, 504 h, dosage 5 g/ha, read-out: Post-emergence action against SETVI in %): 100%
